Key:
[1] = Lactone to carboxylate form conversion in pH 7.4 (RP-HPLC); assay type: physicochemical; settings: for Conversion from lactone form (active) to carboxylate form (inactive) compared with reference compounds: pH 7.4, references exatecan, DXd, SN-38, FL118
cancer cells = settings: cited from earlier work
[2] = over 21 days; bioconjugated to anti-HER2 antibody, DAR 8; cited from earlier work
[3] = test system: Survivin, cIAP2, Mcl-1, XIAP; test: Western blot, expression inhibition of anti-apoptotic proteins in FaDu cell line; assay type: cell-based; settings: Western blot, 0, 10, 100 nM, 24 hours
DDX5 = DDX5 (Homo sapiens, UniProt P17844); test: Western blot, DDX5 degradation in two cell lines (FaDu, A549); settings: FaDu and A549, 0, 10, 100 nM
[4] = mouse, in vivo, ip
[5] = test system: MDA-MB-453 (HER2++) cell line; test: Cell viability assay (CellTiter-Glo), MDA-MB-453 cell line; settings: MDA-MB-453 and FaDu cell lines, 3 days
[6] = test system: FaDu (Trop2+++) cell lines and Calu-6 (Trop2−−) cell lines; test: In vitro cell cytotoxicity test of Sacituzumab-25-6 (6 days); settings: free payload
FaDu cell line = test: Cell viability assay (CellTiter-Glo), FaDu cell line; assay type: cell-based; settings: FaDu (does not express ABCG2), 3-day incubation
Method: After 24 hours, the cells were treated with 100 μl of drugs at 9 concentrations (serial dilutions of 1/5 each from 1,000 nM). […] Also, a control group (drug concentration 0) that was not treated with drugs was prepared. Incubation at constant temperature (37° C., 5% CO2) was performed for 3 or 6 days. 100 ul of CellTiter-Glo reagent (using CellTiter-Glo® Luminescent Cell Viability Assay kit (Promega, G7571)) was added to each well and pipetted. After incubating at constant temperature (RT) for 10 minutes, luminescence was measured.
Cell viability assays were performed on MDA-MB-453 (HER2++) cell lines and FaDu (HER2+) cell lines using the same method as Example 2-2.

[7] = human, in vivo; cited from earlier work
[8] = days 1 and 8 of a 21-day cycle, 25 patients; cited from earlier work

Chain of DDX5 (P17844 whole entry): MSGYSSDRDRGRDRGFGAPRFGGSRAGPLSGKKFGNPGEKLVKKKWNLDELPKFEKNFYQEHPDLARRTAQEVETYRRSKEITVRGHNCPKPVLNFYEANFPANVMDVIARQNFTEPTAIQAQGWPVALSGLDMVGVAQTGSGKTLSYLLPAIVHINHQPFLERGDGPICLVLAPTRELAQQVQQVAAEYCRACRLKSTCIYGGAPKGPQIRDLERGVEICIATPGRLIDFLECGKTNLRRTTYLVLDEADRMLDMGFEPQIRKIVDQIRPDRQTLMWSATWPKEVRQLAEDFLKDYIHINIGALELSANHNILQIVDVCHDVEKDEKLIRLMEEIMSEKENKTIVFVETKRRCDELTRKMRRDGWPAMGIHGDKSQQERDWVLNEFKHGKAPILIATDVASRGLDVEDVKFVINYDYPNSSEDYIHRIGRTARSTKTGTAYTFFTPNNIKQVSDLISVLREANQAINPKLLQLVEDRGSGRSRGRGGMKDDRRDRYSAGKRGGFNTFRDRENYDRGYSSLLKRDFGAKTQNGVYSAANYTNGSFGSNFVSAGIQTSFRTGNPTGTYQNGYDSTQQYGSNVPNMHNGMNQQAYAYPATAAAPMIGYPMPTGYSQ

For `CC[C@@]1(O)C(=O)OCc2c1cc1n(c2=O)Cc2c-1nc1cc(F)c(C)c3c1c2[C@@H](NC(=O)CO)CC3` [Dxd], the “Degree of formation of the carboxylate form” value ([1]; pH 7.4, 37° C.) is given as “about 76.5%”, the “Rate of conversion from the lactone form to the carboxylate form” value (“Rate of conversion from the lactone form” below) ([1]; pH 7.4, 37° C.) is given as 0.6 % per minute and the “Activity in cancer cells relative to SN-38” value (cancer cells) is given as 10 times. For the same compound, the Released in plasma [2] was 2.1%.

With `CC[C@@]1(O)C(=O)OCc2c1cc1n(c2=O)Cc2c-1nc1cc(F)c(C)c3c1c2[C@@H](N)CC3` [Exatecan] the “Expression of anti-apoptotic proteins (Survivin, cIAP2, Mcl-1, XIAP)” value (“Expression of anti-apoptotic proteins” below) [3] was “strongly inhibits the expression of anti-apoptotic proteins”.

For `CC[C@@]1(O)C(=O)OCc2c1cc1n(c2=O)Cc2cc3cc4c(cc3nc2-1)OCO4` [FL118], the “Cytotoxicity relative to SN-38 (times more potent)” value (cancer cells; various cancer cell lines) is listed as 5-10 times, the DDX5 degradation (DDX5) is listed as “superior to other substances in DDX5 degradation” and the “Expression of anti-apoptotic proteins” value [3] is listed as “strongly inhibiting the expression of anti-apoptotic proteins”.

For `CC[C@@]1(O)C(=O)OCc2c1cc1n(c2=O)Cc2c-1nc1cc3c(c4c1c2[C@@H](N)CC4)OCO3` [PBX-7011, (1S,10S)-1-amino-10-ethyl-10-hydroxy-1,2,3,10,13,16-hexahydro-11H,14H-benzo[de][1,3]dioxolo[4,5-g]pyrano[3′,4′:6,7]indolizino[1,2-b]quinoline-11,14-dione], the “Expression of anti-apoptotic proteins” value [3] was “decrease in the expression of Survivin, cIAP2, Mcl-1, and XIAP as the concentration increased”.

In the case of `CC[C@@]1(O)C(=O)OCc2c1cc1n(c2=O)Cc2c-1nc1cc3c(c4c1c2[C@@H](NC(=O)CO)CC4)OCO3` [PBX-7014], the “Rate of conversion from the lactone form” value ([1]; pH 7.4, 37° C.) is reported as 0.8 % per minute, the “Conversion from lactone form (active) to carboxylate form (inactive) compared with reference compounds” value (shortened to “Conversion … compared with reference compounds”) [1] is reported as “more rapidly and at a higher rate than other reference compounds” and the “Expression of anti-apoptotic proteins” value [3] is reported as “decrease in the expression of Survivin, cIAP2, Mcl-1, and XIAP as the concentration increased”.

In the case of `CC[C@@]1(O)C(=O)OCc2c1cc1n(c2=O)Cc2c-1nc1cc3c(c4c1c2[C@@H](NC(=O)[C@@H](C)O)CC4)OCO3` [PBX-7016], the “Clearance from the blood” value [4] is reported as “cleared from the blood very quickly”, the “IC50 level compared with Dxd” value [5] is reported as “equivalent to or higher than Dxd” and the “Cell membrane penetration of non-target cells / cell death” value [6] is reported as “can penetrate the cell membrane of non-target cells”. The “Rate of conversion from the lactone form” value ([1]; pH 7.4, 37° C.) was 0.8 % per minute, the “Conversion … compared with reference compounds” value [1] was “more rapidly and at a higher rate than other reference compounds” and the DDX5 degradation (DDX5) was “inhibited DDX5 in a concentration-dependent manner”. For the same compound, the “Expression of anti-apoptotic proteins” value [3] was “decrease in the expression of Survivin, cIAP2, Mcl-1, and XIAP as the concentration increased”.

With `CC[C@@]1(O)C(=O)OCc2c1cc1n(c2=O)Cc2c-1nc1cc3c(c4c1c2[C@@H](NC(=O)[C@@H](O)C1CC1)CC4)OCO3` [PBX-7024] the “Conversion … compared with reference compounds” value [1] was “more rapidly and at a higher rate than other reference compounds” and the “Cell killing efficacy (IC50)” value (FaDu cell line) was “strong cell killing efficacy”.

For `CCc1c2c(nc3ccc(O)cc13)-c1cc3c(c(=O)n1C2)COC(=O)[C@]3(O)CC` [SN-38], the IC50 values (cancer cells; several cell lines) is given as “nanomolar range”.

In the case of sacituzumab govitecan, the “Diarrhea, all-grade” value [7] is given as 65%, the Febrile neutropenia [7] is given as 7% and the “Neutropenia, Grade≥3” value [7] is given as 47%. For the same compound, the “Neutropenia, all-grade” value [7] was 61%, the Neutropenic colitis [7] was 0.5% and the Dose-limiting toxicity [8] was “neutropenia”.
